From PMC7340446, “Optimization of PTH/PTHrP Hybrid Peptides to Derive a Long‐Acting PTH Analog (LA‐PTH)” (JBMR Plus, 2020)
Where no end group is shown, it is not given here.

Assays:
human PTHR1 = molecular target: T1, human PTHR1 (Homo sapiens, UniProt Q03431); test: GloSensor cAMP signaling assay in GP‐2.3 cells; type: cell-based
T1 construct: expressed in transfected cells
T1 sequence (Q03431 27-593): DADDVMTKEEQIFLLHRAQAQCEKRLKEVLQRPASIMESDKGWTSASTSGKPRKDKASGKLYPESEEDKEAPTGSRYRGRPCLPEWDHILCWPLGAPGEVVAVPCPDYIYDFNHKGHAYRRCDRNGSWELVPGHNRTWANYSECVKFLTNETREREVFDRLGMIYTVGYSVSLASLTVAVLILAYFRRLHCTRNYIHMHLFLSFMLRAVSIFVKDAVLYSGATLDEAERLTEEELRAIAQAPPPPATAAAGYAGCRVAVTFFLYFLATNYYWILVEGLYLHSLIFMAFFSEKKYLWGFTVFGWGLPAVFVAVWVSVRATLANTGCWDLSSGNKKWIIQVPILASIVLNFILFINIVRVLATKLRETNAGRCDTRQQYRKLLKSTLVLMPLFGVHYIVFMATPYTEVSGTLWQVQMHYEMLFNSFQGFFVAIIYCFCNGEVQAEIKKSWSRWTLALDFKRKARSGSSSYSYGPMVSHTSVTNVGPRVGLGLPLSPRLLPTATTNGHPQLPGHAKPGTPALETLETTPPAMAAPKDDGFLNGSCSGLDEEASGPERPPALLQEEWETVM
Method: GP‐2.3 cells, an HEK‐293 cell‐ (ATCC CRL‐1573) derived cell line that stably expresses the luciferase‐based pGloSensor‐22F (GloSensor) cAMP reporter plasmid (Promega Corp., […], USA) along with the human PTHR1, were cultured in DMEM (Thermo Fisher Scientific, Waltham, MA, USA) supplemented with FBS (10%). Cells were seeded into white 96‐well plates for GloSensor cAMP assays, and used for assay 2 to 3 days after the monolayer became confluent.16 UGS‐56 cells were derived from the UMR106 rat osteoblastic cell line by stably transfecting the cells to express the GloSensor‐cAMP reporter. B64 cells are a derivative of the porcine kidney cell line, LLC‐PK1 that stably expresses the human PTHR1. COS‐7 cells (ATCC CRL‐1661) were seeded into 10‐cm dishes and transiently transfected to express the human PTHR1 with or without a high‐affinity, negative‐dominant Gαs subunit; 2 days after transfection, the cells were harvested for membrane preparations.13 All transfections were performed using the Fugene HD reagent (Promega Corp.).
Changes in cAMP levels were assessed in intact GP‐2.3 or UGS‐56 cells via the (GloSensor) cAMP reporter. The intact cells in white 96‐well plates were preloaded with luciferin in CO2‐independent culture media (Thermo Fisher) for 20 min at room temperature, then treated with a test ligand diluted in the same media and placed into a Envision plate reader (PerkinElmer, Waltham, MA, USA) for an additional 30 min, during which time cAMP‐dependent luminescence was measured at 2‐min intervals (ligand‐on phase). […] For washout responses, the cells were treated as above, and after the ligand‐on phase, the plate was removed from the plate reader, the cells were rinsed with media, then fresh media containing only luciferin was added and luminescence was measured for an additional 90 min (washout phase). EC50 values were determined using the 4‐parameter sigmoidal dose–response equation in Prism 8.0 (GraphPad Software, Inc., La Jolla, CA, USA).
The cells were then removed from the plate reader, rinsed twice with media to remove unbound ligand, and then fresh media containing luciferin but lacking ligand was added and luminescence was assessed for additional 90 min (Ligand wash‐out phase). Data are means (± SEM) of four experiments, each performed in triplicate. Figure S2. […] Panels A‐C represent three separate experiments. […] Figure S3. […] Serum and urine samples obtained from the TPTX and sham control rats of the two‐week daily‐administration experiment shown in Figure 4 were analyzed by ELISA for the indicated markers. A) serum 1,25(OH)2Vitamin‐D3. B) urinary deoxypyridinoline (DpD)/Cre. C) serum FGF23. […] Serum and urine samples obtained from the TPTX and sham control rats of the two‐week daily‐administration experiment shown in Figure 4 were analyzed for total inorganic phosphorus (Pi). […] Figure S5. […] B) The same peptides were assessed at a concentration of 3 nM for the capacity to stimulate cAMP formation in HKRK‐B64 cells (LLC‐PK1 cells stably expressing the hPTHR1, cAMP measured by RIA). […] Data in A and B are means (±SEM) of three experiments, each performed in triplicate or quadruplicate. […] D) The same analogs as in C were assessed at a 3.0 nM concentration for the capacity to stimulate cAMP formation in HKRK‐B64 cells. Data are means (±SEM) of three experiments, each performed in duplicate. […] Data are means (±SEM) of duplicate determinations of a single experiment representative of three others. Click here for additional data file.

[1] = molecular target: T2, human PTHR1 (RG conformation) (Homo sapiens, UniProt Q03431); test: Competition binding to the RG conformation of PTHR1
T2 construct: expressed in transfected cells; host or cells: COS-7 cells (transient co-transfection; membranes)
T2 sequence (Q03431 27-593): T1 sequence (Q03431 27-593)

[2] = molecular target: T3, human PTHR1 (R^0 conformation) (Homo sapiens, UniProt Q03431); test: Competition binding to the R^0 conformation of PTHR1
T3 construct: expressed in transfected cells; host or cells: COS-7 cells (transient transfection; membranes)
T3 sequence (Q03431 27-593): T1 sequence (Q03431 27-593)

[3] = test system: thyroparathyroidectomized (TPTX) rats; test: Repeated daily administration in TPTX rats (11‐day treatment, 12‐day study); type: in vivo, rat
Method: TPTX rats were injected i.v. or s.c. with vehicle or vehicle containing a PTH peptide, or orally treated once daily with vehicle (medium‐chain triglyceride; Chugai Pharma Manufacturing, Tokyo, Japan) or vehicle containing alfacalcidol (Chugai Pharma Manufacturing) for 11 days. Blood samples were obtained from the tail or jugular vein immediately before and at times after injection. Urine samples at 0 to 8 hours or 8 to 24 hours, were collected in metabolic cages. sCa and uCa, serum inorganic phosphorus (sPi) and urinary phosphorus (uPi), and creatinine (uCre) were measured with an automatic analyzer (7180; Hitachi, Ltd, Chiyoda, Tokyo, Japan). Urinary deoxypyridinoline (uDpD) was measured using a Metra DPD EIA kit (DS Pharma Biomedical, Osaka, Japan), and the data were normalized to the uCre concentrations. Serum FGF23 was measured using FGF23 ELISA assay (Immunodiagnostik AG, Bensheim, Germany). Serum 1,25‐dihydroxyvitamin D [1,25(OH)2D3] levels were determined by a ELISA immunoassay (Immunodiagnostic System Ltd, Bolden, UK).
Figure 4 Effects of 11‐day treatment (12‐day study) with M‐PTH/PTHrP or alfacalcidol on serum calcium (sCa) in thyroparathyroidectomized (TPTX) rats. TPTX rats were treated for 11 days with daily s.c. injection of either vehicle or M‐PTH/PTHrP, or with daily oral alfacalcidol at the indicated doses, and sham‐surgery control rats were s.c. injected daily with vehicle. The levels of Ca in serum and urine were assessed. Blood samples were collected from the jugular vein at 8 hours (A) and at 24 hours (B) after the last treatment administration, and assessed for total sCa. Total urine was collected in metabolic cages over the time intervals of 0 to 8 hours (C), and 8 to 24 hours (D) and assessed for total urinary Ca. Data are means ± SEM; n = 6 or 5 (2.0 and 4.0 nmol/kg of M‐PTH/PTHrP); *p < 0.05 M‐PTH/PTHrP versus TPTX‐vehicle; #p < 0.05 TPTX vehicle versus sham.
Supplementary file JBM4-4-e10367-s001.pdf: Figure S1 PTH ligand‐induced cAMP‐signaling responses in GP‐2.3 cells Time course of the cAMP‐dependent luminescence response measured at 2‐minute intervals in the presence of each ligand at 10 nM (Ligand on‐phase) and B) Time course of the cAMP‐dependent luminescence response measured at 2‐minute intervals after washout of unbound ligand (Ligand wash‐out phase). GP‐2.3 cells preloaded with luciferin were treated with a concentration of PTH ligand at a concentration of 10 nM for 30 min, and cAMP‐dependent luminescence was measured at two‐minute intervals (ligand‐on phase). The cells were then removed from the plate reader, rinsed twice with media to remove unbound ligand, and then fresh media containing luciferin but lacking ligand was added and luminescence was assessed for additional 90 min (Ligand wash‐out phase). Data are means (± SEM) of four experiments, each performed in triplicate. Figure S2. In vivo calcemic actions of M‐PTH/PTHrP hybrid analogs in normal rats. The indicated M‐PTH/PTHrP hybrid analogs (sequences are shown in Figure 1) along with PTH(1–34) and PTHrP(1–36) controls, were administered at the indicated doses by i.v. injection, and at the indicated time points blood was collected from the tail vein and measured for ionized calcium (Ca^2+). Panels A‐C represent three separate experiments. Data are means ± SEM; n = 6 or 4 (80 nmol/kg of M‐PTH(1‐11)/PTHrP(12–36), M‐PTH(1‐14)/PTHrP(12–36), M‐PTH(1‐17)/PTHrP(18–36) and 1.25 nmol/kg of M‐PTH(1–30)/PTHrP(31–36)). *p < 0.05 versus Vehicle. Figure S3. Effects of 11 days treatment (12 days study) of M‐PTH/PTHrP on serum 1,25(OH) 2 Vitamin‐D3, urinary deoxypyridinoline (Dpd) and serum FGF23 in TPTX rats. Serum and urine samples obtained from the TPTX and sham control rats of the two‐week daily‐administration experiment shown in Figure 4 were analyzed by ELISA for the indicated markers. A) serum 1,25(OH)2Vitamin‐D3. B) urinary deoxypyridinoline (DpD)/Cre. C) serum FGF23. […]

Row | Compound | Emax (human PTHR1) | IC50 [1] | IC50 [2] | Serum levels of FGF23 ([3]; M‐PTH/PTHrP at 4.0 and 8.0 nmol/kg s.c., alfacalcidol at 0.2 μg/kg oral, daily, ELISA) | sCa levels ([3]; daily oral 0.2 μg/kg) | uCa excretion ([3]; daily oral 0.2 μg/kg, 0‐ to 8‐ and 8‐ to 24‐hour intervals) | sPi levels ([3]; daily oral, especially at the 0.2 μg/kg dose)
1 | AVAEIQLMHQRAKWLNSMERVEWLRKKLQDIHTAEI [M‐PTH(1‐30)/PTHrP(31‐36)] | 106 ± 4% | 0.21 ± 0.03 nM | 2.98 ± 0.48 nM | – | – | – | –
2 | AVAEIQLMHQRAKWLNSLRRRFFLHHLIAEIHTAEI [M‐PTH(1‐17)/PTHrP(18‐36)] | 105 ± 5% | 0.23 ± 0.02 nM | 1.91 ± 0.39 nM | – | – | – | –
3 | AVAEIQLMHQRAKWLNSMERVEFLHHLIAEIHTAEI [M‐PTH(1‐22)/PTHrP(23‐36)] | 104 ± 4% | 0.67 ± 0.02 nM | 7.8 ± 2.55 nM | – | – | – | –
4 | AVAEIQLMHQRAKWLNSMERVEWLRKLIAEIHTAEI [M‐PTH(1‐26)/PTHrP(27‐36)] | 106 ± 5% | 0.13 ± 0.04 nM | 1.73 ± 0.75 nM | – | – | – | –
5 | C=C1/C(=C\C=C2/CCC[C@]3(C)[C@@H]([C@H](C)CCCC(C)C)CC[C@@H]23)C[C@@H](O)C[C@@H]1O [alfacalcidol, 1α‐hydroxycholecalciferol] | – | – | – | significantly increased | comparable to those of the sham group | high uCa excretion levels | normalized sPi levels
6 | AVAEIQLMHQRAKWLNSMRRRFFLHHLIAEIHTAEI [M‐PTH(1‐18)/PTHrP(19‐36)] | 107 ± 5% | 0.13 ± 0.02 nM | 1.66 ± 0.22 nM | – | – | – | –
7 | AVAEIQLMHQRGKSIQDLRRRFFLHHLIAEIHTAEI [M‐PTH(1‐11)/PTHrP(12‐36)] | 103 ± 3% | 0.55 ± 0.15 nM | 2.14 ± 0.47 nM | – | – | – | –
